From ChEMBL document CHEMBL1944551, “An integrated computational workflow for efficient and quantitative modeling of renin inhibitors” (Bioorg Med Chem, 2012)

Test: physchem
Conditions: octanol/buffer

| logP | SMILES |
| --- | --- |
| 5.67 | CCC(=O)NCc1ccc(Cl)c(CN(C(=O)[C@H]2CNCC(=O)N2c2ccc(CCCOc3c(F)ccc(F)c3F)cc2)C2CC2)c1 |
| 5.77 | CCC(=O)NCc1ccc(Cl)c(CN(C(=O)[C@H]2CNCC(=O)N2c2ccc(OCCOc3c(Cl)cc(C)cc3Cl)cc2)C2CC2)c1 |
| 2.34 | COc1ccccc1COCCCOc1ncc(N2C(=O)CNC[C@@H]2C(=O)N(C)CCCc2ccccc2)cn1 |
| 5.65 | COc1ccccc1COCCCOc1ccc(N2C(=O)CNC[C@@H]2C(=O)N(Cc2cccc(Cl)c2Cl)C2CC2)cc1 |
| 4.48 | COC(=O)NCc1ccc(Cl)c(CN(C(=O)[C@H]2CNCC(=O)N2c2ccc(COC(=O)c3ccccc3)cc2)C2CC2)c1 |
| 4.88 | CNCc1ccc(Cl)c(CN(C(=O)[C@H]2CNCC(=O)N2c2ccc(OCCCOCc3ccccc3OC)cc2)C2CC2)c1 |
| 5.32 | COCCc1ccc(Cl)c(CN(C(=O)[C@H]2CNCC(=O)N2c2ccc(OCCCOCc3ccccc3)cc2)C2CC2)c1 |
| 4.95 | COCCc1ccc(Cl)c(CN(C(=O)[C@H]2CNCC(=O)N2c2ccc(COC(=O)c3ccccc3)cc2)C2CC2)c1 |
| 6.22 | O=C([C@H]1CNCC(=O)N1c1ccc(CCCOc2cccc(Cl)c2)cc1)N(Cc1cc(CCNCC(F)F)ccc1Cl)C1CC1 |
| 5.76 | COCCCc1ccc(Cl)c(CN(C(=O)[C@H]2CNCC(=O)N2c2ccc(OCCCOCc3ccccc3)cc2)C2CC2)c1 |
| 5.22 | COCCc1ccc(Cl)c(CN(C(=O)[C@H]2CNCC(=O)N2c2ccc(OCCOc3c(Cl)cc(C)cc3Cl)nc2)C2CC2)c1 |
| 3.82 | COc1ccccc1COCCCOc1ccc(N2C(=O)CNC[C@@H]2C(=O)N(C)Cc2ccccc2)cc1 |
| 4.62 | CNC(=O)CCc1ccc(Cl)c(CN(C(=O)[C@H]2CNCC(=O)N2c2ccc(OCCCOCc3ccccc3)cc2)C2CC2)c1 |
| 5.83 | Cc1cc(Cl)c(OCCOc2ccc(N3C(=O)CNC[C@@H]3C(=O)N(Cc3cccc(C)c3C)C3CC3)cc2)c(Cl)c1 |
| 5.72 | COCCCc1ccc(Cl)c(CN(C(=O)[C@H]2CNCC(=O)N2c2ccc(OCCCOCc3ccccc3OC)cc2)C2CC2)c1 |
| 1.89 | COc1ccccc1COCCCOc1ncc(N2C(=O)CNC[C@@H]2C(=O)N(C)CCc2ccccc2)cn1 |
| 5.73 | O=C([C@H]1CNCC(=O)N1c1ccc(CCCOc2c(F)ccc(F)c2F)cc1)N(Cc1ccccc1Cl)C1CC1 |
| 4.73 | O=C(OCc1ccc(N2C(=O)CNC[C@@H]2C(=O)N(Cc2ccc(Cl)cc2)C2CC2)cc1)c1ccccc1 |
| 5.74 | COC(=O)NCCc1ccc(Cl)c(CN(C(=O)[C@H]2CNCC(=O)N2c2ccc(CCCOc3cccc(Cl)c3)cc2)C2CC2)c1 |
| 3.9 | COc1ccccc1COCCCOc1ccc(N2C(=O)CNC[C@@H]2C(=O)N(C)CCc2ccccc2)cc1 |
| 4.87 | COc1ccccc1COCCCOc1ccc(N2C(=O)CNC[C@@H]2C(=O)N(Cc2cc(CNC(=O)C3CC3)ccc2Cl)C2CC2)cc1 |
| 5.91 | O=C([C@H]1CNCC(=O)N1c1ccc(CCCOc2cccc(Cl)c2)cc1)N(Cc1ccc(Cl)cc1)C1CC1 |
| 4.66 | COc1cccc(CN(C(=O)[C@H]2CNCC(=O)N2c2ccc(OCCOc3c(Cl)cc(C)cc3Cl)nc2)C2CC2)c1C |
| 5.33 | COCCCc1cc(CN(C(=O)[C@H]2CNCC(=O)N2c2ccc(CCCOc3c(F)ccc(F)c3F)cc2)C2CC2)c(Cl)c[n+]1[O-] |
| 5.66 | O=C([C@H]1CNCC(=O)N1c1ccc(CCCOc2c(F)ccc(F)c2F)cc1)N(Cc1cc(CNCCF)ccc1Cl)C1CC1 |

| logP | SMILES |
| --- | --- |
| 5.66 | COCCCc1ccc(Cl)c(CN(C(=O)[C@H]2CNCC(=O)N2c2ccc(OCCOc3c(Cl)cc(C)cc3Cl)nc2)C2CC2)c1 |
| 5.65 | CNC(=O)OCc1ccc(Cl)c(CN(C(=O)[C@H]2CNCC(=O)N2c2ccc(CCCOc3cccc(Cl)c3)cc2)C2CC2)c1 |
| 5.22 | CCNCc1ccc(Cl)c(CN(C(=O)[C@H]2CNCC(=O)N2c2ccc(OCCCOCc3ccccc3OC)cc2)C2CC2)c1 |
| 4.84 | COC(=O)NCCc1ccc(Cl)c(CN(C(=O)[C@H]2CNCC(=O)N2c2ccc(OCCOc3c(Cl)cc(C)cc3Cl)nc2)C2CC2)c1 |
| 3.6 | COc1ccccc1COCCCOc1ncc(N2C(=O)CNC[C@@H]2C(=O)N(Cc2cc(CCNC(=O)COC(C)(C)C)ccc2Cl)C2CC2)cn1 |
| 4.92 | O=C(NCc1ccc(Cl)c(CN(C(=O)[C@H]2CNCC(=O)N2c2ccc(OCCCOCc3ccccc3)cc2)C2CC2)c1)C1CC1 |
| 3.3 | CCNCCc1ccc(Cl)c(CN(C(=O)[C@H]2CNCC(=O)N2c2cnc(OCCCOCc3ccccc3OC)nc2)C2CC2)c1 |
| 4.85 | COC(=O)NCc1ccc(Cl)c(CN(C(=O)[C@H]2CNCC(=O)N2c2ccc(OCCCOCc3ccccc3)cc2)C2CC2)c1 |
| 5.11 | O=C([C@H]1CNCC(=O)N1c1ccc(OCCCOCc2ccccc2)cc1)N(Cc1ccccc1Cl)C1CC1 |
| 5.39 | COCCCc1ccc(Cl)c(CN(C(=O)[C@H]2CNCC(=O)N2c2ccc(COC(=O)c3ccccc3)cc2)C2CC2)c1 |
| 5.42 | CNC(=O)CCc1ccc(Cl)c(CN(C(=O)[C@H]2CNCC(=O)N2c2ccc(CCCOc3cccc(Cl)c3)cc2)C2CC2)c1 |
| 5.83 | Cc1cc(Cl)c(OCCOc2ccc(N3C(=O)CNC[C@@H]3C(=O)N(Cc3ccc(Cl)cc3)C3CC3)cc2)c(Cl)c1 |
| 5.74 | CNC(=O)OCCc1ccc(Cl)c(CN(C(=O)[C@H]2CNCC(=O)N2c2ccc(CCCOc3cccc(Cl)c3)cc2)C2CC2)c1 |
| 5.43 | O=C([C@H]1CNCC(=O)N1c1ccc(OCCCOCc2ccccc2)cc1)N(Cc1cc(CCNCC(F)F)ccc1Cl)C1CC1 |
| 6.56 | COCCCc1ccc(Cl)c(CN(C(=O)[C@H]2CNCC(=O)N2c2ccc(CCCOc3cccc(Cl)c3)cc2)C2CC2)c1 |
| 4.57 | CNC(=O)CCc1ccc(Cl)c(CN(C(=O)[C@H]2CNCC(=O)N2c2ccc(OCCCOCc3ccccc3OC)cc2)C2CC2)c1 |
| 4.57 | CNC(=O)OCCc1ccc(Cl)c(CN(C(=O)[C@H]2CNCC(=O)N2c2ccc(COC(=O)c3ccccc3)cc2)C2CC2)c1 |
| 4.52 | CNC(=O)CCc1ccc(Cl)c(CN(C(=O)[C@H]2CNCC(=O)N2c2ccc(OCCOc3c(Cl)cc(C)cc3Cl)nc2)C2CC2)c1 |
| 2.81 | CCNC(=O)Cc1ccc(Cl)c(CN(C(=O)[C@H]2CNCC(=O)N2c2cnc(OCCCOCc3ccccc3OC)nc2)C2CC2)c1 |
| 6.38 | Cc1cc(Cl)c(OCCOc2ccc(N3C(=O)CNC[C@@H]3C(=O)N(Cc3cc(CCNC(=O)COC(C)(C)C)ccc3Cl)C3CC3)cc2)c(Cl)c1 |
| 5.19 | Cc1cc(Cl)c(OCCOc2ccc(N3C(=O)CNC[C@@H]3C(=O)N(Cc3cc(CNC(=O)CC(F)(F)F)ccc3Cl)C3CC3)cn2)c(Cl)c1 |
| 4.9 | COC(=O)NCCc1ccc(Cl)c(CN(C(=O)[C@H]2CNCC(=O)N2c2ccc(OCCCOCc3ccccc3OC)cc2)C2CC2)c1 |
| 4.71 | COCCCc1cc(CN(C(=O)[C@H]2CNCC(=O)N2c2ccc(OCCCOCc3ccccc3)cc2)C2CC2)c(Cl)c[n+]1[O-] |
| 5.63 | CNCCc1ccc(Cl)c(CN(C(=O)[C@H]2CNCC(=O)N2c2ccc(CCCOc3c(F)ccc(F)c3F)cc2)C2CC2)c1 |
| 4.11 | COCCCc1cc(CN(C(=O)[C@H]2CNCC(=O)N2c2ccc(COC(=O)c3ccccc3)cc2)C2CC2)c(Cl)cn1 |

| logP | SMILES |
| --- | --- |
| 5.77 | O=C([C@H]1CNCC(=O)N1c1ccc(CCCOc2c(F)ccc(F)c2F)cc1)N(Cc1cccc(Cl)c1)C1CC1 |
| 5.35 | CCNCCc1ccc(Cl)c(CN(C(=O)[C@H]2CNCC(=O)N2c2ccc(OCCCOCc3ccccc3)cc2)C2CC2)c1 |
| 6.02 | Cc1cc(Cl)c(OCCOc2ccc(N3C(=O)CNC[C@@H]3C(=O)N(Cc3cc(CNC(=O)CC(F)(F)F)ccc3Cl)C3CC3)cc2)c(Cl)c1 |
| 2.88 | COC(=O)NCCc1ccc(Cl)c(CN(C(=O)[C@H]2CNCC(=O)N2c2cnc(OCCCOCc3ccccc3OC)nc2)C2CC2)c1 |
| 5.27 | COCCc1ccc(Cl)c(CN(C(=O)[C@H]2CNCC(=O)N2c2ccc(OCCCOCc3ccccc3OC)cc2)C2CC2)c1 |
| 6.29 | O=C([C@H]1CNCC(=O)N1c1ccc(CCCOc2c(F)ccc(F)c2F)cc1)N(Cc1cc(CCNC2CC2)ccc1Cl)C1CC1 |
| 2.98 | CCC(=O)NCc1ccc(Cl)c(CN(C(=O)[C@H]2CNCC(=O)N2c2cnc(OCCCOCc3ccccc3OC)nc2)C2CC2)c1 |
| 4.94 | Cc1cc(Cl)c(OCCOc2ccc(N3C(=O)CNC[C@@H]3C(=O)N(Cc3cc(CNCCF)ccc3Cl)C3CC3)cn2)c(Cl)c1 |
| 4.98 | CCNCCc1ccc(Cl)c(CN(C(=O)[C@H]2CNCC(=O)N2c2ccc(COC(=O)c3ccccc3)cc2)C2CC2)c1 |
| 4.72 | COc1ccccc1COCCCOc1ccc(N2C(=O)CNC[C@@H]2C(=O)N(Cc2cccc(OC)c2C)C2CC2)cc1 |
| 5.04 | Cc1cc(Cl)c(OCCOc2ccc(N3C(=O)CNC[C@@H]3C(=O)N(Cc3cccc(Cl)c3)C3CC3)cn2)c(Cl)c1 |
| 3.58 | CN(CCc1ccccc1)C(=O)[C@H]1CNCC(=O)N1c1ccc(COC(=O)c2ccccc2)cc1 |
| 6.12 | COCCc1ccc(Cl)c(CN(C(=O)[C@H]2CNCC(=O)N2c2ccc(CCCOc3cccc(Cl)c3)cc2)C2CC2)c1 |
| 5 | O=C(CC(F)(F)F)NCCc1ccc(Cl)c(CN(C(=O)[C@H]2CNCC(=O)N2c2ccc(COC(=O)c3ccccc3)cc2)C2CC2)c1 |
| 3.29 | O=C(OCc1ccc(N2C(=O)CNC[C@@H]2C(=O)NCc2ccccc2)cc1)c1ccccc1 |
| 4.9 | CNC(=O)OCCc1ccc(Cl)c(CN(C(=O)[C@H]2CNCC(=O)N2c2ccc(OCCCOCc3ccccc3OC)cc2)C2CC2)c1 |
| 4.73 | Cc1cccc(CN(C(=O)[C@H]2CNCC(=O)N2c2ccc(COC(=O)c3ccccc3)cc2)C2CC2)c1C |
| 5.51 | COCCCc1cc(CN(C(=O)[C@H]2CNCC(=O)N2c2ccc(CCCOc3cccc(Cl)c3)cc2)C2CC2)c(Cl)c[n+]1[O-] |
| 3.21 | CCNCc1ccc(Cl)c(CN(C(=O)[C@H]2CNCC(=O)N2c2cnc(OCCCOCc3ccccc3OC)nc2)C2CC2)c1 |
| 3.49 | CN(Cc1ccccc1)C(=O)[C@H]1CNCC(=O)N1c1ccc(COC(=O)c2ccccc2)cc1 |
| 5.18 | O=C(Cc1ccc(Cl)c(CN(C(=O)[C@H]2CNCC(=O)N2c2ccc(OCCCOCc3ccccc3)cc2)C2CC2)c1)NC1CC1 |
| 2.98 | COc1ccccc1COCCCOc1ncc(N2C(=O)CNC[C@@H]2C(=O)N(Cc2cc(CNCCF)ccc2Cl)C2CC2)cn1 |
| 5.55 | CNCc1ccc(Cl)c(CN(C(=O)[C@H]2CNCC(=O)N2c2ccc(CCCOc3c(F)ccc(F)c3F)cc2)C2CC2)c1 |
| 5.84 | O=C([C@H]1CNCC(=O)N1c1ccc(CCCOc2cccc(Cl)c2)cc1)N(Cc1cc(CNCCF)ccc1Cl)C1CC1 |
